The text below walks through data of patent publication US20250092088A1, “PEPTIDE COMPOUND PRODUCTION METHOD” (CHUBU UNIVERSITY EDUCATIONAL FOUNDATION, priority 2022, published 2025).

Each structure is given as a SMILES string.

The nature of this series: TLC analysis of H-Ala-O-PG to evaluate polarity reduction by protecting groups. The series is classed as physicochemical. The following applies: hexane/ethyl acetate=2/1, L-Ala with terminal carboxyl protected by PG (H-Ala-O-PG). From the text: As protecting groups for the terminal carboxyl groups of amino acid/peptide compounds, the silicon-containing hydrophobic substituents TAG1(Si), TAG2(Si), and TAG3(Si) synthesized in Examples 1 to 3, the conventionally known protecting group tBu group, and the previously mentioned TAGa group (alkoxybenzyl ester group) represented by the following formula, which is described in Non-Patent Literature 6 (Org. Process Res. Dev. 2019, Vol. 23, p. 2576-2581), were used to protect the terminal carboxyl of an amino acid (L-Ala), and their effects on polarity reduction were evaluated.

As for `C[C@H](N)C(=O)OC(C)(C)C` [tBu, reference compound], the Rf value was determined as 0.07.
